Laboratory results published in patent US6878742B2, “Heterocyclic sulfonamide inhibitors of beta amyloid production” (Wyeth, priority 2000, dated 2005).

System: amyloid precursor protein (APP) proteolysis
Test: Repressor Release Assay (RRA)
Assay type: cell-based
Conditions: Conc 20 μg/mL; luciferase activity over diluent control; read-out: APPI Fold Increase
Method: The beta amyloid inhibitory activity of many of the compounds of the present invention has been determined using the Repressor Release Assay (RRA). See, Table 23 below. A compound is considered active in RRA if it leads to at least a 1.5 fold increase in luciferase activity at 20 μM and is non-toxic.
The compounds generated as described in Examples 1 through 220 were tested in the RRA in accordance with published techniques [Shuey, D. J., Sheiffele, P., Jones, D., Cockett, M. I., and Quinet, E. M. (1999), “Repressor release: a useful tool for monitoring amyloid precursor protein (APP) proteolysis in mammalian cells”, Society for Neuroscience Abstracts, Vol. 25, 29th Annual Meeting of Society for Neuroscience, Miami Beach, Fla., Oct. 23-28, 1999]. Briefly, this assay is performed as follows.
CHO-K1 cells are cultured in whole DMEM media (DMEM—High Glucose with 10% fetal bovine serum, 1% Non-essential Amino Acids, and 1% Penicillin-Streptomycin) at 37° C. with 5% CO2. Two million cells are plated into 10-cm dishes 24 hrs prior to transfection.
Transient transfections are completed as recommended by Gibco BRL using their Lipofectamine Plus system. First, 6 μg of pRSVO-luc and 6 μg of APP-lacI construct DNA are added to 460 μL Opti-Mem transfection media and incubated with 30 μL Plus reagent for 15 minutes. Then, a lipid mixture of 40 μL Lipofectamine reagent and 460 μL Opti-Mem transfection media is incubated with the DNA-Plus reagent mixture for 15 minutes. During the DNA-lipid incubation, the CHO-K1 cells are washed once and covered in 5.0 mL DMEM media without Penicillin-Streptomycin. The DNA-lipid preparation is then layered onto these cells and incubated at 37° C. overnight.
One and one half million transfected cells per well (100 μL total volume) are plated into sterile, opaque Packard 96-well Cultur-Plates in clear DMEM whole media (DMEM—without phenol red) and incubated at 37° C. with 5% CO2 for 3-5 hours.
Compounds are diluted using two different protocols; one protocol is used for compounds supplied neat (weighed powder in vial) and the other protocol is used for compounds supplied in solution (20 mM in DMSO in 96-well plates). For both protocols, 25 mM Hepes and 25 mM Hepes/1% DMSO are prepared fresh to be used as diluent. The Hepes/DMSO is used as the diluent control on all experimental plates.
The following table depicts the steps for compound dilution (please note that the last step is the addition of compound to cells/media in tissue culture plate):
Because some compounds arrive in 96-well format at 20 mM, the following represents the protocol for their dilution (note that an average molecular weight of these compounds was used to calculate these dilutions and as above, the last step is the addition of compound to cells/media in tissue culture plate):
Once compounds are diluted, they are applied in duplicate on cells in tissue culture plates (prepared above). Cells are incubated with compound at 37° C. with 5% CO2 for an additional 36-48 hours.
Luciferase assays (LucLite reagent, Packard) are performed and are read on a Packard TopCount instrument. Media is removed from each 96-well plate and replaced with 100 μL PBS per well (with Mg^2+ and Ca^2+). An equal volume (100 μL) of the LucLite lysis/substrate buffer is added to each well and the plates are sealed and mixed in the dark on a rotary shaker for 15-30 minutes at room temperature. Luciferase readings are then taken on the TopCount instrument. Measurements are expressed as relative light units (RLU) and are calculated and analyzed in MS Excel as follows.
A compound is considered active in RRA if it leads to at least a 1.5 fold increase in luciferase activity at 20 μM and is non-toxic, as determined by loss of signal (≦0.75 fold increase). Fold increase is the amount of luciferase activity (measured in relative light units) over diluent control. SEM represents the standard error of the mean for fold increase (not shown).

SMILES	fold induction at 20 µg/mL
CCCCCC[C@@H](c1ccco1)[C@@H](CO)NS(=O)(=O)c1ccc(Cl)s1 [Example 51, 5-chloro-N-[(1S,2R)-2-(2-furyl)-1-(hydroxymethyl)octyl]thiophene-2-sulfonamide]	4
CCCCCC[C@@H](C(C)C)[C@@H](CO)NS(=O)(=O)c1ccc(Cl)s1 [Example 52, 5-chloro-N-[(1S,2S)-1-(hydroxymethyl)-2-isopropyloctyl]thiophene-2-sulfonamide]	7
C[C@@H](c1ccc(-c2ccccc2)cc1)[C@@H](CO)NS(=O)(=O)c1ccc(Cl)s1 [Example 53, N-[(1S,2S)-2-[1,1'-biphenyl]-4-yl-1-(hydroxymethyl)propyl]-5-chlorothiophene-2-sulfonamide]	3.9
CC[C@@H](c1ccc(-c2ccccc2)cc1)[C@@H](CO)NS(=O)(=O)c1ccc(Cl)s1 [Example 54, N-[(1S,2S)-2-[1,1'-biphenyl]-4-yl-1-(hydroxymethyl)butyl]-5-chlorothiophene-2-sulfonamide]	3.3
CC(C)C[C@@H](c1ccc(-c2ccccc2)cc1)[C@@H](CO)NS(=O)(=O)c1ccc(Cl)s1 [Example 55, N-[(1S,2S)-2-[1,1'-biphenyl]-4-yl-1-(hydroxymethyl)-4-methylpentyl]-5-chlorothiophene-2-sulfonamide]	1.9
CC(C)C[C@@H](C)[C@@H](CO)NS(=O)(=O)c1ccc(Br)s1 [Example 56, 5-bromo-N-[(1S,2R)-1-(hydroxymethyl)-2,4-dimethylpentyl]thiophene-2-sulfonamide]	6.8
CCCCCC[C@@H](C)[C@@H](CO)NS(=O)(=O)c1ccc(Br)s1 [Example 57, 5-bromo-N-[(1S,2R)-1-(hydroxymethyl)-2-methyloctyl]thiophene-2-sulfonamide]	6.4
CCC(CC)[C@@H](CO)NS(=O)(=O)c1ccc(Br)s1 [Example 58, 5-bromo-N-[(1S)-2-ethyl-1-(hydroxymethyl)butyl]thiophene-2-sulfonamide]	10
CC[C@H](CC(C)C)[C@@H](CO)NS(=O)(=O)c1ccc(Br)s1 [Example 59, 5-bromo-N-[(1S,2R)-2-ethyl-1-(hydroxymethyl)-4-methylpentyl]thiophene-2-sulfonamide]	4.5
CCC[C@H](CC)[C@@H](CO)NS(=O)(=O)c1ccc(Br)s1 [Example 60, 5-bromo-N-[(1S,2S)-2-ethyl-1-(hydroxymethyl)pentyl]thiophene-2-sulfonamide]	6.9
CCC[C@H](CC(C)C)[C@@H](CO)NS(=O)(=O)c1ccc(Br)s1 [Example 61, 5-bromo-N-[(1S,2R)-1-(hydroxymethyl)-4-methyl-2-propylpentyl]thiophene-2-sulfonamide]	5.7
CCCCC[C@H](CC)[C@@H](CO)NS(=O)(=O)c1ccc(Br)s1 [Example 62, 5-bromo-N-[(1S,2S)-2-ethyl-1-(hydroxymethyl)heptyl]thiophene-2-sulfonamide]	4.5
CCCCC[C@H](CC(C)C)[C@@H](CO)NS(=O)(=O)c1ccc(Br)s1 [Example 63, 5-bromo-N-[(1S,2R)-1-(hydroxymethyl)-2-isobutylheptyl]thiophene-2-sulfonamide]	3.3
CCCCC[C@H](c1ccc(OC)cc1)[C@@H](CO)NS(=O)(=O)c1ccc(Br)s1 [Example 64, 5-bromo-N-[(1S,2R)-1-(hydroxymethyl)-2-(4-methoxyphenyl)heptyl]thiophene-2-sulfonamide]	2.9
CCCCCC[C@@H](CCCCC)[C@@H](CO)NS(=O)(=O)c1ccc(Br)s1 [Example 65, 5-bromo-N-[(1S,2R)-1-(hydroxymethyl)-2-pentyloctyl]thiophene-2-sulfonamide]	1.9
C[C@@H](c1ccccc1)[C@@H](CO)NS(=O)(=O)c1ccc(Br)s1 [Example 66, 5-bromo-N-[(1S,2S)-1-(hydroxymethyl)-2-phenylpropyl]thiophene-2-sulfonamide]	5.3
CC[C@@H](c1ccccc1)[C@@H](CO)NS(=O)(=O)c1ccc(Br)s1 [Example 67, 5-bromo-N-[(1S,2S)-1-(hydroxymethyl)-2-phenylbutyl]thiophene-2-sulfonamide]	4.7
CC(C)C[C@@H](c1ccccc1)[C@@H](CO)NS(=O)(=O)c1ccc(Br)s1 [Example 68, 5-bromo-N-[(1S,2S)-1-(hydroxymethyl)-4-methyl-2-phenylpentyl]thiophene-2-sulfonamide]	2.3
CC(C)C[C@@H](c1cccnc1)[C@@H](CO)NS(=O)(=O)c1ccc(Br)s1 [Example 69, 5-bromo-N-[(1S,2S)-1-(hydroxymethyl)-4-methyl-2-pyridin-3-ylpentyl]thiophene-2-sulfonamide]	1.5
C[C@@H](c1ccco1)[C@@H](CO)NS(=O)(=O)c1ccc(Br)s1 [Example 70, 5-bromo-N-[(1S,2R)-2-(2-furyl)-1-(hydroxymethyl)propyl]thiophene-2-sulfonamide]	4.6
CC[C@@H](c1ccco1)[C@@H](CO)NS(=O)(=O)c1ccc(Br)s1 [Example 71, 5-bromo-N-[(1S,2R)-2-(2-furyl)-1-(hydroxymethyl)butyl]thiophene-2-sulfonamide]	5.2
CC(C)C[C@@H](c1ccco1)[C@@H](CO)NS(=O)(=O)c1ccc(Br)s1 [Example 72, 5-bromo-N-[(1S,2R)-2-(2-furyl)-1-(hydroxymethyl)-4-methylpentyl]thiophene-2-sulfonamide]	6.4
CCCCCC[C@@H](c1ccco1)[C@@H](CO)NS(=O)(=O)c1ccc(Br)s1 [Example 73, 5-bromo-N-[(1S,2R)-2-(2-furyl)-1-(hydroxymethyl)octyl]thiophene-2-sulfonamide]	1.9
CC[C@@H](C(C)C)[C@@H](CO)NS(=O)(=O)c1ccc(Br)s1 [Example 74, 5-bromo-N-[(1S,2S)-2-ethyl-1-(hydroxymethyl)-3-methylbutyl]thiophene-2-sulfonamide]	5.1
CC(C)C[C@@H](C(C)C)[C@@H](CO)NS(=O)(=O)c1ccc(Br)s1 [Example 75, 5-bromo-N-[(1S,2S)-1-(hydroxymethyl)-2-isopropyl-4-methylpentyl]thiophene-2-sulfonamide]	4.7
CC[C@@H](c1ccc(-c2ccccc2)cc1)[C@@H](CO)NS(=O)(=O)c1ccc(Br)s1 [Example 76, N-[(1S,2S)-2-[1,1′-biphenyl]-4-yl-1-(hydroxymethyl)butyl]-5-bromothiophene-2-sulfonamide]	3.2
CCCCCC[C@@H](CC)[C@@H](CO)NS(=O)(=O)c1ccc(Cl)s1 [Example 77A, 5-Chloro-N-[(1S,2R)-2-ethyl-1-(hydroxymethyl)octyl]thiophene-2-sulfonamide]	3.1
CCCCCC[C@H](CC)[C@@H](CO)NS(=O)(=O)c1ccc(Cl)s1 [Example 77B, 5-chloro-N-[(1S,2S)-2-ethyl-1-(hydroxymethyl)octyl]thiophene-2-sulfonamide]	16.9
CCCCCC[C@@H](CC)[C@@H](CO)NS(=O)(=O)c1ccc(Br)s1 [Example 78A, 5-bromo-N-[(1S,2R)-2-ethyl-1-(hydroxymethyl)octyl]thiophene-2-sulfonamide]	5.8
